# Reference: patent US20240376099A1, “COMPOUNDS AND COMPOSITIONS AS INHIBITORS OF ENDOSOMAL TOLL-LIKE RECEPTORS” (Novartis AG, priority 2016, published 2024)
# Target: T1, TLR8 (Homo sapiens, UniProt Q9NR97)
# T1 sequence (Q9NR97 27-1041): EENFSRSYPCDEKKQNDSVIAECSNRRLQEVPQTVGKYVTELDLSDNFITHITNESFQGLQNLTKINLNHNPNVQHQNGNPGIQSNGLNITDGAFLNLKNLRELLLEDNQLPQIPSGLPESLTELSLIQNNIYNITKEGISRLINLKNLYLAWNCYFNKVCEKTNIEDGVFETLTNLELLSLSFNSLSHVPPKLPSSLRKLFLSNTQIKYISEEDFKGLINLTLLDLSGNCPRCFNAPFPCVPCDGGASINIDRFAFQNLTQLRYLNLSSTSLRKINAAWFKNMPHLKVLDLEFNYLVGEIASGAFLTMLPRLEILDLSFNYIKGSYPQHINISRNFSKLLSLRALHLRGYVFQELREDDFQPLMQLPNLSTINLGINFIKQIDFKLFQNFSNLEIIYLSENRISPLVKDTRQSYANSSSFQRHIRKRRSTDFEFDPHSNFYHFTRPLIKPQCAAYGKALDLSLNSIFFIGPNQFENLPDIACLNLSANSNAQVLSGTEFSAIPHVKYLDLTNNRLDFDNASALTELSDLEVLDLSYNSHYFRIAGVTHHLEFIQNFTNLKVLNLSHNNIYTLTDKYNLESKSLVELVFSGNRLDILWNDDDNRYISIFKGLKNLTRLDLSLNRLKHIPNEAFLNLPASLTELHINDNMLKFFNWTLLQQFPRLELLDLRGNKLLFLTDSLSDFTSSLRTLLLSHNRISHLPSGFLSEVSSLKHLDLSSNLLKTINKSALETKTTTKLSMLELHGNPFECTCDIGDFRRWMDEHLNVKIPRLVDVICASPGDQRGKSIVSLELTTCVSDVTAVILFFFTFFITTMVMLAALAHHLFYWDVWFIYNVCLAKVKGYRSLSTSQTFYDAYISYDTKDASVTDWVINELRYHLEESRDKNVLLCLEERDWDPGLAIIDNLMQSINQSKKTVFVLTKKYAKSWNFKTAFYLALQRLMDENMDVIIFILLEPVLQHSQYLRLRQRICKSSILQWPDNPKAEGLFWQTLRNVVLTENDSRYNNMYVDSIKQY
# Experiment: huPBMC TLR8 Antagonist IL-6 TR-FRET Assay
# Format: cell-based
# Parameters: Fresh blood was collected from normal human donors; endogenous in cells; host or cells: human PBMCs from fresh donor blood
# Conditions: human PBMCs stimulated with ssRNA40 1 μg/ml (DOTAP), 14-16 hrs; IL-6 TR-FRET read-out
# Description: Compounds were generally serially diluted (1/3) in DMSO and plated on sterile 384 well tissue culture plates and stored until ready for use. Each ten-point dilution was typically plated in triplicate in parallel rows.
# Fresh blood was collected from normal human donors underwritten informed consent in heparinized syringes on the morning of the assay. The blood was diluted in RPMI-1640 medium and the white blood cells were separated from red blood cells by centrifugation (800 g 15′ 0 acceleration, 0 brake) on a Ficoll cushion. Peripheral blood mononuclear cells (PBMCs) were separated from platelets by a series of low-speed centrifugations (1000RPM 10′) in PBS+5% HI—FBS and 1 mM EDTA. Purified PBMCs were re-suspended in assay medium (RPMI-1640 w Glutamax (Invitrogen) supplemented with 5% HI—FBS, 10 mM HEPES, 50 uM β-mercaptoethanol, and 100 mG/L penicillin/streptomycin cocktail). Viable PBMCs were counted on a hemacytometer and kept on ice until ready for plating.
# A 4× concentration (4 ug/ml or 40 ug/ml for TLR8 or TLR7 assays, respectively) of the TLR7/8 agonist ssRNA40 (IDT) was complexed with 10% DOTAP (Roche) in assay medium for 30 min prior to addition to the PBMC suspension (5 million cells/ml). After addition, the final concentration of ssRNA40 in the TLR7/8 stimulated PBMC suspension was 1 μg/ml for TLR8 assay, and 10 μg/mL for the TLR7 assay. The final DOTAP concentration was 2.5%. Diluted PBMCs (5 million cells/ml) were treated with 4×TLR9 agonist ODN2216 (Invivogen). Final concentration of ODN2216 in TLR9 stimulated PBMC suspension was 0.3 μM.
# Agonist stimulated PBMCs were plated on the compound treated 384 well plates at 150,000 cells/well. Un-stimulated PBMCs were plated as controls on each plate. Plating volume was 40 μL per well. DMSO concentration in each well was 0.25%.
# A separate plate, without compounds, with titrations of ssRNA40 and ODN2216 was included in every assay to measure agonist response of each donor's PBMC prep. Assay plates were placed in a tissue culture incubator (37° C., 5% CO2) for 14-16 hrs. After this incubation, the plates were centrifuged and stored at −20° C. until they were assayed.
# IL-6 TR-FRET Assay for TLR8 activity: • 1) Cisbio Human IL-6 kit, 20,000 tests (62TNFPEC), and GNF High-Base TC 384 well plates (cat #789163G) were used; • 2) the Anti-TIL-6 Cryptate conjugate and the Anti-IL-6 XL665 conjugate were diluted 1:20 in Reconstitution Buffer; • 3) a 1:1 mixture of 3 μl/well Anti-IL-6 Cryptate conjugate and 3 μl/well Anti-IL-6 XL665 conjugate was prepared; • 4) 6 μl/well HTRF dilution mastermix was added to 6 μl of transferred supernatant samples in proxiplates; • 5) The plates were incubated for 3 hrs at rt in the dark; and • 6) the levels of IL-6 production was measured using an Envision plate reader (665 nm (emmission)/590 nm (excitation)) with HTRF settings and ratiometric read-out: (XL665 emission/Eu Cryptate emission)×10,000. IFNα2b AlphaLISA Assay for TLR7 or TLR9 activity After thawing the assay plates, 6 μL of supernatant samples were transferred to a low-volume AlphaPlate 384SW (Perkin-Elmer). The concentration of IFNα in supernatants was measured using the IFNα2b AlphaLISA Assay (Perkin-Elmer: AL297F). 3 μL of IFNα acceptor beads/biotinylated antibody solution was added first, using laboratory automation. After an hour incubation, […] of streptavidin […] bead solution was added. The plates containing this mixture were incubated in the dark for an hour and read on an appropriate plate reader at reading parameters set by the manufacturer. (Envision, EnSpire: Perkin-Elmer).
row,IC50,Compound
1,622 nM,"COc1ccc(-c2cc(N3CCc4c(c(C)nn4CC45CCC(N)(CC4)CC5)C3)ccn2)cc1 [compound 89, 4-((5-(2-(4-methoxyphenyl)pyridin-4-yl)-3-methyl-4,5,6,7-tetrahydro-1H-pyrazolo[4,3-c]pyridin-1-yl)methyl)bicyclo[2.2.2]octan-1-amine]"
2,1010 nM,"Cc1ccc(-c2cc(N3CCc4c(c(C)nn4CC45CCC(N)(CC4)CC5)C3)ccn2)cc1 [compound 90, 4-((3-methyl-5-(2-(p-tolyl)pyridin-4-yl)-4,5,6,7-tetrahydro-1H-pyrazolo[4,3-c]pyridin-1-yl)methyl)bicyclo[2.2.2]octan-1-amine]"
3,983 nM,"Cc1cc(N2CCc3c(c(C)nn3CC34CCC(N)(CC3)CC4)C2)cc(-c2ccccc2)n1 [compound 93, 4-((3-methyl-5-(2-methyl-6-phenylpyridin-4-yl)-4,5,6,7-tetrahydro-1H-pyrazolo[4,3-c]pyridin-1-yl)methyl)bicyclo[2.2.2]octan-1-amine]"
4,1110 nM,"Cc1nn(CC23CCC(N)(CC2)CC3)c2c1CN(c1ccnc(-c3ccccn3)c1)CC2 [compound 94, 4-((5-([2,2'-bipyridin]-4-yl)-3-methyl-4,5,6,7-tetrahydro-1H-pyrazolo[4,3-c]pyridin-1-yl)methyl)bicyclo[2.2.2]octan-1-amine]"
5,4200 nM,"CCn1ncc2c(N3CCc4c(c(C)nn4CC45CCC(N)(CC4)CC5)C3)cc(C)nc21 [compound 150, 4-((5-(1-ethyl-6-methyl-1H-pyrazolo[3,4-b]pyridin-4-yl)-3-methyl-4,5,6,7-tetrahydro-1H-pyrazolo[4,3-c]pyridin-1-yl)methyl)bicyclo[2.2.2]octan-1-amine]"

# The next lines start with the compound.
row,Compound,IC50
1,"Cc1cc(N2CCc3c(c(C)nn3CC34CCC(N5CCCCC5)(CC3)CO4)C2)c2cnn(C)c2n1 [compound 95, 5-(1,6-dimethyl-1H-pyrazolo[3,4-b]pyridin-4-yl)-3-methyl-1-((4-(piperidin-1-yl)-2-oxabicyclo[2.2.2]octan-1-yl)methyl)-4,5,6,7-tetrahydro-1H-pyrazolo[4,3-c]pyridine]",85 nM
2,"COCC(C)NC12CCC(Cn3nc(C)c4c3CCN(c3cc(C)nc5c3cnn5C)C4)(CC1)CC2 (stereo not drawn) [compound 96, 4-((5-(1,6-dimethyl-1H-pyrazolo[3,4-b]pyridin-4-yl)-3-methyl-4,5,6,7-tetrahydro-1H-pyrazolo[4,3-c]pyridin-1-yl)methyl)-N-(1-methoxypropan-2-yl)bicyclo[2.2.2]octan-1-amine]",775 nM
3,"CCN(C)C12CCC(Cn3nc(C)c4c3CCN(c3cc(C)nc5c3cnn5C)C4)(CC1)CC2 [compound 97, 4-((5-(1,6-dimethyl-1H-pyrazolo[3,4-b]pyridin-4-yl)-3-methyl-4,5,6,7-tetrahydro-1H-pyrazolo[4,3-c]pyridin-1-yl)methyl)-N-ethyl-N-methylbicyclo[2.2.2]octan-1-amine]",89 nM
4,"Cc1cc(N2CCc3c(c(C)nn3CC34CCC(N(C)C)(CC3)CO4)C2)c2cnn(C)c2n1 [compound 98, 1-((5-(1,6-dimethyl-1H-pyrazolo[3,4-b]pyridin-4-yl)-3-methyl-4,5,6,7-tetrahydro-1H-pyrazolo[4,3-c]pyridin-1-yl)methyl)-N,N-dimethyl-2-oxabicyclo[2.2.2]octan-4-amine]",718 nM
5,"Cc1nn(CC23CCC(N)(CC2)CC3)c2c1CN(c1nc(Cl)nc3c1COC3)CC2 [compound 103, 4-((5-(2-chloro-5,7-dihydrofuro[3,4-d]pyrimidin-4-yl)-3-methyl-4,5,6,7-tetrahydro-1H-pyrazolo[4,3-c]pyridin-1-yl)methyl)bicyclo[2.2.2]octan-1-amine]",1420 nM
6,"Cc1cc(N2CCc3c(c(C)nn3CC34CCC(NC(=O)C5COCCN5C)(CC3)CC4)C2)c2cnn(C)c2n1 (stereo not drawn) [compound 122, N-(4-((5-(1,6-dimethyl-1H-pyrazolo[3,4-b]pyridin-4-yl)-3-methyl-4,5,6,7-tetrahydro-1H-pyrazolo[4,3-c]pyridin-1-yl)methyl)bicyclo[2.2.2]octan-1-yl)-4-methylmorpholine-3-carboxamide]",922 nM
7,"Cc1nc(N2CCc3c(c(C)nn3CC34CCC(N)(CC3)CC4)C2)c2cnn(C)c2n1 [compound 149, 4-((5-(1,6-dimethyl-1H-pyrazolo[3,4-d]pyrimidin-4-yl)-3-methyl-4,5,6,7-tetrahydro-1H-pyrazolo[4,3-c]pyridin-1-yl)methyl)bicyclo[2.2.2]octan-1-amine]",695 nM
